A word on the remaining activity: it is the signal under treatment as a percentage of the control signal. What is called inhibition is the relative decrease from the control value, in per cent. Read a low inhibition as a weak effect. A word on the viability: it is a read-out of living cells in per cent, often relative to untreated cells.

One assay has as its target T1, GSPT1 (Homo sapiens, UniProt P15170).
T1 construct: Whole cell extracts were prepared using RIPA buffer according to manufacturer's protocol (Pierce); endogenous in cells
In words: GSPT1 protein levels by Western Blot analysis. The assay is classed as cell-based. The following applies: DMSO = 100.00; for remaining activity at 0.1 µM: 100 nM compound concentration; for remaining activity at 1 µM: 1 μM compound concentration. Put shortly: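 Molm-13 AML cells in RPMI 1640 with 10% FBS, about 10^6 cells/mL, treated with compound or DMSO for 6-8 h. RIPA whole-cell lysates resolved by SDS-PAGE, blotted and probed for GSPT1 with β-actin reference; IRDye secondary antibodies quantified by LI-COR Odyssey infrared imaging.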
(A western blot detects proteins with antibodies after separation by electrophoresis.)

The test system of the next assay is IL-6. Put plainly: IL-6 expression in LPS stimulated PBMCs (Meso Scale). The class given is cell-based, human. The following applies: Homo sapiens, PBMC, LPS-stimulated PBMCs; for inhibition at 1 µM: compound concentration 1 μM. Summed up:
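Thawed human PBMCs at 200,000 cells/well in RPMI-1640/10% FBS were pretreated with compound or DMSO for 1 h, then stimulated with 100 ng/mL LPS for 18–24 h. Supernatant IL-6 was measured by Meso Scale assay and expressed as % of LPS-induced activity.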

For a further assay, the system named is H1048 cells. Put plainly: H1048 cell viability (CellTiter-Glo). The class given is cell-based. As to conditions: Homo sapiens, NCI-H1048, 72 h, H1048, 3 days, DMSO = 100.00; for viability at 1 µM: 1 μM compound concentration; for viability at 10 µM: 10 μM compound concentration. Put shortly: (§1)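 Molm-13 (RPMI-1640, 10% FBS) and H1048 (DMEM:F12, 5% FBS with supplements) plated at 20,000 cells/well, treated with compound or 0.1% DMSO for 3 days at 37° C., 5% CO2. Viability read by CellTiter-Glo luminescence after 10 min.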
(In general: Cellular ATP, detected with luciferase, serves as a proxy for viable cell number.)

The subject of another assay is MDA-MB-231 cells. Put plainly: MDA-MB-231 cell viability (CellTiter-Glo). The class given is cell-based. The following applies: Homo sapiens, 72 h, 3 days, DMSO = 100.00; for viability at 1 µM: 1 μM compound concentration; for viability at 10 µM: 10 μM compound concentration. Summed up: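 Cells in DMEM with 10% FBS, seeded at 10,000 per well, exposed to compound (0.1% DMSO control) for 3 days at 37° C, 5% CO2. Viability read by CellTiter-Glo luminescence after 10 min shaking.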

The test system of a further assay is TNF-α. Put plainly: TNF-α expression in LPS stimulated PBMCs (Meso Scale). The assay is classed as cell-based, human. The following applies: Homo sapiens, PBMC; for inhibition at 1 µM: compound concentration 1 μM. Summed up:
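Thawed primary human PBMCs, 200,000 cells/well in RPMI-1640/10% FBS, pretreated with compound 1 h, then stimulated with 100 ng/mL LPS for 18-24 h. Supernatant TNF-α measured by Meso Scale assay; activity expressed as percentage of LPS-induced level, DMSO as negative control.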

The test system of the next assay is IL-2. In words: anti-CD3-induced IL-2 secretion in PBMCs. The assay is classed as cell-based. As to conditions: Homo sapiens, PBMC, anti-CD3 stimulated PBMCs, 24 h, DMSO = 1.0, read-out: Fold Change IL-2; for fold induction at 1 µM: compound concentration 1 μM. Put shortly:
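PBMCs stimulated on plates coated with 1 ug/mL anti-CD3 (OKT3), with compound or DMSO, 24 h. Supernatant IL-2 measured by Mesoscale; activity expressed as fold difference from DMSO-stimulated control.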

Another assay deals with Molm-13 cells. Put plainly: Molm-13 cell viability (CellTiter-Glo). The following applies: Homo sapiens, MOLM-13, read-out: % Inhibition (MOLM-13 Cell Viability); for cytotoxicity at 10 µM: compound concentration 10 μM; for cytotoxicity at 0.3 µM: compound concentration 0.3 μM. The assay is classed as cell-based. Summed up: as §1
For the next assay, the system named is IL-1β. In words: IL-1β expression in LPS stimulated PBMCs (Meso Scale). The assay is classed as cell-based, human. As to conditions: Homo sapiens, PBMC; for inhibition at 1 µM: compound concentration 1 μM. Put shortly:
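Human PBMCs (200,000 cells/well in RPMI-1640/10% FBS) were pretreated with compound for 1 h, then stimulated with 100 ng/mL LPS for 18-24 h. IL-1β in supernatant was measured by Meso Scale assay. Activity is expressed as percentage of LPS-induced level, with DMSO-treated wells as negative control.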

T1 sequence (P15170 whole entry): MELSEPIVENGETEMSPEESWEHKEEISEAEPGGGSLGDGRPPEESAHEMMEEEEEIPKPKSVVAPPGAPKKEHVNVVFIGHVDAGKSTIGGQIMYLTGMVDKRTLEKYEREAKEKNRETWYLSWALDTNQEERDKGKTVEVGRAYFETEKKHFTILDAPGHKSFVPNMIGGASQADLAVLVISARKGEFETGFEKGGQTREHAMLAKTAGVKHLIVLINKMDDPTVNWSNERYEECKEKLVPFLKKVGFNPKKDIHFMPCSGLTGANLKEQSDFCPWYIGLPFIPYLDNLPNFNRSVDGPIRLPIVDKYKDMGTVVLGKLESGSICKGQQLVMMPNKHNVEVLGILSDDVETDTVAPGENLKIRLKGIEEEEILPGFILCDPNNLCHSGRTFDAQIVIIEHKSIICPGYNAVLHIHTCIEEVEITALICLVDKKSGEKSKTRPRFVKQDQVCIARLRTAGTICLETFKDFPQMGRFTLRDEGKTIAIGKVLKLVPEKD
T1 sequence (Q96SW2 whole entry, further chain): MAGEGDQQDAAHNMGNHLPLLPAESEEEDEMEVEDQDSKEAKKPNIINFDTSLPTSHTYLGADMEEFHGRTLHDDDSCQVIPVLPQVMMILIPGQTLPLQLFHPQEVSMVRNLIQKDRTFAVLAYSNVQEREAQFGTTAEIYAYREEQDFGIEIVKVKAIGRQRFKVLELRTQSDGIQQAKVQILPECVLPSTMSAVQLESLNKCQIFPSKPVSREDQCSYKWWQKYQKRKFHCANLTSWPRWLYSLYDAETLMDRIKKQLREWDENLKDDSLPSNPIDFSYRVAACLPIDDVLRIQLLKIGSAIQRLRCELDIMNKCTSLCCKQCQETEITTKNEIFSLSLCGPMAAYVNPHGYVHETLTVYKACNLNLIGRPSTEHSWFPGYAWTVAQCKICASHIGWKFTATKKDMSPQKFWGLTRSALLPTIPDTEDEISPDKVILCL
T1 sequence (Q16531 whole entry partner): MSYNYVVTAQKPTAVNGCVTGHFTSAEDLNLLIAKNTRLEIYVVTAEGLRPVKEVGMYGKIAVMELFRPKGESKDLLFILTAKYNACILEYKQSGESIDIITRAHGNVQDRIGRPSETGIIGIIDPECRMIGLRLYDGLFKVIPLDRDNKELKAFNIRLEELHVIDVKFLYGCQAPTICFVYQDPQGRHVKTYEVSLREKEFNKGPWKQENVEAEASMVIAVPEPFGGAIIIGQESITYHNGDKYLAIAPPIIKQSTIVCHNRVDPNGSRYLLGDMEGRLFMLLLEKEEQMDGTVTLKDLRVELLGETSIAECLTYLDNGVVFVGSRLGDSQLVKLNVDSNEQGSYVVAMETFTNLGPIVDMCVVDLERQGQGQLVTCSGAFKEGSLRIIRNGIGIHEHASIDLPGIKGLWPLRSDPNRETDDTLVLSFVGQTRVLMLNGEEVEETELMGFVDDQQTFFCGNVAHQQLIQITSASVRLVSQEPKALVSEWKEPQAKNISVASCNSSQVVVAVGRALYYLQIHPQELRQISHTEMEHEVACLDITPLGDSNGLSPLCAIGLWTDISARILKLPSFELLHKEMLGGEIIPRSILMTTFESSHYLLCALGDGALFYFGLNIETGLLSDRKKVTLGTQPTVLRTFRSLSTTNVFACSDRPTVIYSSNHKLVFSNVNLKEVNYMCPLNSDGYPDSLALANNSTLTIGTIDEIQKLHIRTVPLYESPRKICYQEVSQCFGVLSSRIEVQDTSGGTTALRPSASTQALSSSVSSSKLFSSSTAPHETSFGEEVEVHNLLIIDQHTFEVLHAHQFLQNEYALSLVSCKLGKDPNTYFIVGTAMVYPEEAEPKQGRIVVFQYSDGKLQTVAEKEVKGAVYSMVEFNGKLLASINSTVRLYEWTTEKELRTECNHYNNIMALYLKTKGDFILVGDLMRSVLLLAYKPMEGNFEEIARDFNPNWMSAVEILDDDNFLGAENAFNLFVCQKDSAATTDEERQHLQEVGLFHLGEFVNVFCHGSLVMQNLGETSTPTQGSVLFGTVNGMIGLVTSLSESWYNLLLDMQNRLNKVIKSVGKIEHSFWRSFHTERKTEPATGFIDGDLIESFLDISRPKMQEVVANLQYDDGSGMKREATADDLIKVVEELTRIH

On to `Cc1ccc(CNC(=O)NCc2scc3c2CN(C2CCC(=O)NC2=O)C3=O)cc1Cl` (stereo not drawn) [Compound 33, 1-(3-Chloro-4-methylbenzyl)-3-((5-(2,6-dioxopiperidin-3-yl)-4-oxo-5,6-dihydro-4H-thieno[3,4-c]pyrrol-1-yl)methyl)urea], for which, at GSPT1, the remaining activity at 0.1 µM was 5.9%. Besides, on GSPT1, the remaining activity at 1 µM came to 5.5%. Besides, the results for the inhibition at 0.1 µM in the assay with IL-6 (compound concentration 0.1 μM), with TNF-α (compound concentration 0.1 μM) and with IL-1β (compound concentration 0.1 μM) were 99%, 95% and 95%, respectively. In addition, the viability at 1 µM with H1048 cells stood at 8.76%; in the assay with MDA-MB-231 cells, 21.7%. The viability at 10 µM in the assay on H1048 cells turned out to be 8.21%; in the assay with MDA-MB-231 cells, 19.8%. Besides, the fold induction at 0.1 µM with IL-2 (compound concentration 0.1 μM) was 0.3. Also, the cytotoxicity at 0.003 µM in the assay with Molm-13 cells (compound concentration 0.003 μM) turned out to be 50%.
For `Cc1ccc(CNC(=O)NCc2scc3c2CN([C@H]2CCCC(=O)NC2=O)C3=O)cc1Cl` [Compound 34, (S)-1-(3-Chloro-4-methylbenzyl)-3-((5-(2,7-dioxoazepan-3-yl)-4-oxo-5,6-dihydro-4H-thieno[3,4-c]pyrrol-1-yl)methyl)urea], on GSPT1, the remaining activity at 0.1 µM is 84.9%. Besides, on GSPT1, the remaining activity at 1 µM is 37.5%. In addition, the inhibition at 1 µM came out at 39% in the assay on IL-6, 69% in the assay with TNF-α and 70% in the assay on IL-1β. In addition, the viability at 1 µM in the assay on H1048 cells is 12.9%; with MDA-MB-231 cells it was 102%. In addition, the viability at 10 µM was determined as 8.34% with H1048 cells and 44.4% in the assay with MDA-MB-231 cells. Also, the fold induction at 1 µM in the assay with IL-2 worked out at 1.6. Besides, the cytotoxicity at 10 µM in the assay on Molm-13 cells was determined as 99%.
`Cc1ccc(NC(=O)NCc2cc3c(s2)C(=O)N([C@H]2CCCC(=O)NC2=O)C3)cc1Cl` [Compound 35, (S)-1-(3-Chloro-4-methylphenyl)-3-((5-(2,7-dioxoazepan-3-yl)-6-oxo-5,6-dihydro-4H-thieno[2,3-c]pyrrol-2-yl)methyl)urea]: the remaining activity at 0.1 µM at GSPT1 worked out at 112%. The remaining activity at 1 µM on GSPT1 came to 44.5%. Besides, the inhibition at 1 µM in the assay on IL-6 came out at 16%; in the assay on TNF-α, 39%; in the assay on IL-1β, 44%. Moreover, the values for the viability at 1 µM in the assay on H1048 cells and with MDA-MB-231 cells were 15.5% and 99%, respectively. Moreover, the viability at 10 µM in the assay on H1048 cells was found to be 12.4%; with MDA-MB-231 cells, 64.8%. Besides, the fold induction at 1 µM with IL-2 is 1.4. Besides, the cytotoxicity at 10 µM with Molm-13 cells was determined as 93%.
As to `Cc1cc(C)c(NC(=O)NCc2scc3c2CN([C@H]2CCCC(=O)NC2=O)C3=O)cc1Cl` [Compound 36, (S)-1-(5-Chloro-2,4-dimethylphenyl)-3-((5-(2,7-dioxoazepan-3-yl)-4-oxo-5,6-dihydro-4H-thieno[3,4-c]pyrrol-1-yl)methyl)urea], the remaining activity at 0.1 µM at GSPT1 stood at 92.9%. Also, the remaining activity at 1 µM at GSPT1 stood at 32.6%. The inhibition at 1 µM came to 38% in the assay with IL-6, 33% with TNF-α and 40% in the assay on IL-1β. Further, the viability at 1 µM with H1048 cells is 10.6%; with MDA-MB-231 cells, 101%. The viability at 10 µM with H1048 cells came to 7.51%; with MDA-MB-231 cells it was 53.4%. The fold induction at 1 µM in the assay with IL-2 turned out to be 0.8. Besides, the cytotoxicity at 10 µM with Molm-13 cells was 100%.
For the molecule `Cc1ccc(NC(=O)NCc2scc3c2CN([C@H]2CCCC(=O)NC2=O)C3=O)cn1` [Compound 37, (S)-1-((5-(2,7-Dioxoazepan-3-yl)-4-oxo-5,6-dihydro-4H-thieno[3,4-c]pyrrol-1-yl)methyl)-3-(6-methylpyridin-3-yl)urea], on GSPT1, the remaining activity at 0.1 µM was found to be 124%. In addition, the remaining activity at 1 µM on GSPT1 turned out to be 154%. Besides, the inhibition at 1 µM with IL-6 came out at 3%; with TNF-α it was 6%; with IL-1β it was 4%. Moreover, the viability at 1 µM turned out to be 55% in the assay with H1048 cells and 106% with MDA-MB-231 cells. Besides, the viability at 10 µM is 10.5% in the assay on H1048 cells and 97.7% with MDA-MB-231 cells. In addition, in the assay on IL-2, the fold induction at 1 µM worked out at 1.1. Also, the cytotoxicity at 10 µM in the assay on Molm-13 cells amounted to 51%.
As to `Cc1ccc(NC(=O)NCc2scc3c2CN([C@H]2CCCC(=O)NC2=O)C3=O)cc1C(F)(F)F` [Compound 38, (S)-1-((5-(2,7-Dioxoazepan-3-yl)-4-oxo-5,6-dihydro-4H-thieno[3,4-c]pyrrol-1-yl)methyl)-3-(4-methyl-3-(trifluoromethyl)phenyl)urea], the remaining activity at 0.1 µM at GSPT1 worked out at 49%. Also, the remaining activity at 1 µM on GSPT1 was found to be 5.52%. Further, the inhibition at 1 µM is 94% with IL-6, 87% with TNF-α and 84% in the assay on IL-1β. Besides, the viability at 1 µM was found to be 8.35% with H1048 cells and 54.7% in the assay on MDA-MB-231 cells. Also, the results for the viability at 10 µM in the assay on H1048 cells and in the assay with MDA-MB-231 cells were 7.89% and 27.6%, respectively. Moreover, the fold induction at 1 µM in the assay with IL-2 stood at 0.6. For the same molecule, the cytotoxicity at 0.3 µM in the assay on Molm-13 cells worked out at 50%.
On to `Cc1ccc(CNC(=O)NCc2cc3c(s2)C(=O)N([C@H]2CCCC(=O)NC2=O)C3)cc1Cl` [Compound 39, (S)-1-(3-Chloro-4-methylbenzyl)-3-((5-(2,7-dioxoazepan-3-yl)-6-oxo-5,6-dihydro-4H-thieno[2,3-c]pyrrol-2-yl)methyl)urea], for which, at GSPT1, the remaining activity at 0.1 µM was 87.4%. For the same molecule, the remaining activity at 1 µM on GSPT1 was determined as 96%. Also, the inhibition at 1 µM stood at 0% in the assay on IL-6, 18% with TNF-α and 24% in the assay on IL-1β. In addition, the viability at 1 µM in the assay on H1048 cells was 58.3%; in the assay on MDA-MB-231 cells it was 105%. Also, the values for the viability at 10 µM in the assay with H1048 cells and in the assay with MDA-MB-231 cells were 19.9% and 101%, respectively. In the assay on IL-2, the fold induction at 1 µM came out at 1.4. Moreover, the cytotoxicity at 10 µM in the assay on Molm-13 cells came to 9%.
As for `Cc1ccc(NC(=O)NCc2cc3c(s2)C(=O)N(C2CCC(=O)NC2=O)C3)cc1Cl` (stereo not drawn) [Compound 40, 1-(3-Chloro-4-methylphenyl)-3-((5-(2,6-dioxopiperidin-3-yl)-6-oxo-5,6-dihydro-4H-thieno[2,3-c]pyrrol-2-yl)methyl)urea], on GSPT1, the remaining activity at 0.1 µM came to 46%. The remaining activity at 1 µM at GSPT1 came to 40%. Moreover, the inhibition at 1 µM in the assay on IL-6 amounted to 17%; with TNF-α, 34%; with IL-1β it was 37%. Moreover, the values for the viability at 1 µM in the assay on H1048 cells and in the assay on MDA-MB-231 cells were 12.9% and 57.7%, respectively. For the same molecule, the results for the viability at 10 µM with H1048 cells and with MDA-MB-231 cells were 13.6% and 50%, respectively. For the same molecule, in the assay on IL-2, the fold induction at 1 µM was determined as 0.3. For the same molecule, in the assay on Molm-13 cells (compound concentration 0.02 μM), the cytotoxicity at 0.02 µM came out at 50%.
Turning to `Cc1ccc(NC(=S)NCc2scc3c2CN([C@H]2CCCC(=O)NC2=O)C3=O)cc1Cl` [Compound 41], the remaining activity at 0.1 µM at GSPT1 turned out to be 55.2%. On GSPT1, the remaining activity at 1 µM turned out to be 6.4%. Moreover, the inhibition at 1 µM in the assay with IL-6 came to 95%; in the assay with TNF-α, 90%; in the assay on IL-1β, 89%. Besides, the viability at 1 µM in the assay with H1048 cells was found to be 9.42%; with MDA-MB-231 cells, 58.2%. The viability at 10 µM in the assay with H1048 cells was 9.37%; in the assay with MDA-MB-231 cells, 30%. Moreover, the fold induction at 1 µM with IL-2 amounted to 0.3. Besides, the cytotoxicity at 0.3 µM in the assay on Molm-13 cells was 50%.

Values taken from patent publication US10040804B2, “Compounds targeting proteins, compositions, methods, and uses thereof” (BioTheryX, Inc., priority 2016, dated 2018).
